Test results as given in US4293489A, “Derivatives of A-30912A nucleus” (Eli Lilly and Company, priority 1980, dated 1981).
Where two headings read alike, the source gives them in different places. Starred links: 1 amine or outer side, 2 acyl side, 3 side chain; linkers in the order of their positions; H or OH if unused. Positions of bridges follow the written chain, without caps; N, C: chain ends. Non-standard residues stand in square brackets, D forms with d. Residues, ends and D or L forms follow the SMILES beside them. *: point of attachment. Orn(4R-OH,5R-OH) = O=C([C@H](C[C@@H](O)[C@@H](O)N[*:3])N[*:1])[*:2]; hTyr(3S-OH,4S-OH) = N[C@H](C(=O)O)[C@H](O)[C@@H](O)c1ccc(O)cc1; Pro(3S-OH,4S-Me) = C[C@H]1CN[C@H](C(=O)O)[C@H]1O; Benzoyl(4-octyl) = CCCCCCCCc1ccc(C(=O)*)cc1; X10 = CCCCCCCCCCCCOc1cccc(C(=O)*)c1; X16 = CCCCCCCCOc1ccc(C=CC(=O)*)cc1; Hyp = O=C(O)[C@@H]1C[C@@H](O)CN1; X15 = CCCCCCCCOc1cccc(CC(=O)*)c1; X19 = CCCCCCOc1ccc(C=CC(=O)*)cc1; X9 = CCCCCCCCCCOc1cccc(C(=O)*)c1; X12 = CCCCCCOc1ccc(CCC(=O)*)cc1; X14 = CCCCCCOc1ccc(C(=O)*)cc1; X17 = CCCCOc1ccc(CCC(=O)*)cc1

What was measured:
[1] = system: Candida albicans A-26; assay: Therapeutic activity against Candida albicans A-26 infection in mice, ED50; format: in vivo; conditions: Candida albicans, A26, sc, doses 0, 4 and 24 hours post infection, increase in survival time vs control, Reed-Muench, read-out: ED50
Method: (§1) The results of in vivo tests to evaluate the effectiveness of the compounds of Examples 3 and 4 against an infection caused by Candida albicans A-26 in mice are given in Table 13, where activity is measured by the ED50 value (the dose in mg/kg. required to cure 50% of the test animals). In a separate test, the results of which are also summarized in Table 13, activity is indicated by the lowest dose at which a significant anti-fungal effect is observed. In this test, groups of male albino mice (specific pathogen free), weighing 18 to 20 grams, are infected intravenously with Candida albicans A-26. The animals are X-irradiated 24 hours prior to infection at about 50 roentgens per minute for 8 minutes (400 total dose) to reduce immune responses to the infecting organism. At 0, 4, and 24 hours post infection each group of mice is given graded doses subcutaneously of the test compound as a suspension in 33% polyethylene glycol (PEG)-water. The day of death for each animal is recorded.
(§2) *Dosage Schedules: A. = 40, 20, 15 and 10 mg/kg; Dosages given 0, 4, and
(§3) 24 hours post injection as suspension of test compound in 30% PEGH2
(§4) O. Number of mice receiving test compounds at each dosage level: 6 mice
(§5) per group. Number of mice in control (untreated) group: 10 mice per group
**As measured by increase in survival time of treated animals versus
control, calculated by method of Reed v Mueuch, American J. Hygiene, 27,

[2] = system: Candida albicans A-26; assay: Therapeutic activity against Candida albicans A-26 infection in X-irradiated mice, lowest active dose; format: in vivo; conditions: A26, light or radiation study, sc
Method: as §1, §2, §3, §4, §5

[3] = X-irradiated mice, subcutaneous at 0, 4 and 24 hours post infection, survival, read-out: Lowest Active Dose
[4] = read-out: Lowest Active Dose, X-irradiated mice, subcutaneous at 0, 4 and 24 hours post infection, survival

Row | SMILES | ED50 [1] [mg/kg] | minimal effective dose [2, 3] [mg/kg] | minimal effective dose [2, 4] [mg/kg]
1 | CCCCCCCCCCOc1cccc(C(=O)N[C@H]2C[C@@H](O)[C@@H](O)NC(=O)[C@@H]3[C@@H](O)[C@@H](C)CN3C(=O)[C@H]([C@@H](C)O)NC(=O)[C@H]([C@H](O)[C@@H](O)c3ccc(O)cc3)NC(=O)[C@@H]3C[C@@H](O)CN3C(=O)[C@H]([C@@H](C)O)NC2=O)c1 [drawing 164] (X9-[Orn(4R-OH,5R-OH)]T[Hyp][hTyr(3S-OH,4S-OH)]T[Pro(3S-OH,4S-Me)]; lactam 1-C) | > 50 | > 40 | 
2 | CCCCCCCCCCCCOc1cccc(C(=O)N[C@H]2C[C@@H](O)[C@@H](O)NC(=O)[C@@H]3[C@@H](O)[C@@H](C)CN3C(=O)[C@H]([C@@H](C)O)NC(=O)[C@H]([C@H](O)[C@@H](O)c3ccc(O)cc3)NC(=O)[C@@H]3C[C@@H](O)CN3C(=O)[C@H]([C@@H](C)O)NC2=O)c1 [drawing 165] (X10-[Orn(4R-OH,5R-OH)]T[Hyp][hTyr(3S-OH,4S-OH)]T[Pro(3S-OH,4S-Me)]; lactam 1-C) | > 50 | > 40 | 
3 | CCCCCCOc1ccc(C(=O)N[C@H]2C[C@@H](O)[C@@H](O)NC(=O)[C@@H]3[C@@H](O)[C@@H](C)CN3C(=O)[C@H]([C@@H](C)O)NC(=O)[C@H]([C@H](O)[C@@H](O)c3ccc(O)cc3)NC(=O)[C@@H]3C[C@@H](O)CN3C(=O)[C@H]([C@@H](C)O)NC2=O)cc1 [drawing 167] (X14-[Orn(4R-OH,5R-OH)]T[Hyp][hTyr(3S-OH,4S-OH)]T[Pro(3S-OH,4S-Me)]; lactam 1-C) | 28 | 20 | 
4 | CCCCCCCCc1ccc(C(=O)N[C@H]2C[C@@H](O)[C@@H](O)NC(=O)[C@@H]3[C@@H](O)[C@@H](C)CN3C(=O)[C@H]([C@@H](C)O)NC(=O)[C@H]([C@H](O)[C@@H](O)c3ccc(O)cc3)NC(=O)[C@@H]3C[C@@H](O)CN3C(=O)[C@H]([C@@H](C)O)NC2=O)cc1 [drawing 169] ({Benzoyl(4-octyl)}-[Orn(4R-OH,5R-OH)]T[Hyp][hTyr(3S-OH,4S-OH)]T[Pro(3S-OH,4S-Me)]; lactam 1-C) | 30 | 40 | 
5 | CCCCOc1ccc(CCC(=O)N[C@H]2C[C@@H](O)[C@@H](O)NC(=O)[C@@H]3[C@@H](O)[C@@H](C)CN3C(=O)[C@H]([C@@H](C)O)NC(=O)[C@H]([C@H](O)[C@@H](O)c3ccc(O)cc3)NC(=O)[C@@H]3C[C@@H](O)CN3C(=O)[C@H]([C@@H](C)O)NC2=O)cc1 [drawing 170] (X17-[Orn(4R-OH,5R-OH)]T[Hyp][hTyr(3S-OH,4S-OH)]T[Pro(3S-OH,4S-Me)]; lactam 1-C) | > 40 | 40 | 
6 | CCCCCCOc1ccc(CCC(=O)N[C@H]2C[C@@H](O)[C@@H](O)NC(=O)[C@@H]3[C@@H](O)[C@@H](C)CN3C(=O)[C@H]([C@@H](C)O)NC(=O)[C@H]([C@H](O)[C@@H](O)c3ccc(O)cc3)NC(=O)[C@@H]3C[C@@H](O)CN3C(=O)[C@H]([C@@H](C)O)NC2=O)cc1 [drawing 171] (X12-[Orn(4R-OH,5R-OH)]T[Hyp][hTyr(3S-OH,4S-OH)]T[Pro(3S-OH,4S-Me)]; lactam 1-C) | 9.2 |  | 5
7 | CCCCCCOc1ccc(C=CC(=O)N[C@H]2C[C@@H](O)[C@@H](O)NC(=O)[C@@H]3[C@@H](O)[C@@H](C)CN3C(=O)[C@H]([C@@H](C)O)NC(=O)[C@H]([C@H](O)[C@@H](O)c3ccc(O)cc3)NC(=O)[C@@H]3C[C@@H](O)CN3C(=O)[C@H]([C@@H](C)O)NC2=O)cc1 [drawing 175] (X19-[Orn(4R-OH,5R-OH)]T[Hyp][hTyr(3S-OH,4S-OH)]T[Pro(3S-OH,4S-Me)]; lactam 1-C) | 21.8 |  | 5
8 | CCCCCCCCOc1ccc(C=CC(=O)N[C@H]2C[C@@H](O)[C@@H](O)NC(=O)[C@@H]3[C@@H](O)[C@@H](C)CN3C(=O)[C@H]([C@@H](C)O)NC(=O)[C@H]([C@H](O)[C@@H](O)c3ccc(O)cc3)NC(=O)[C@@H]3C[C@@H](O)CN3C(=O)[C@H]([C@@H](C)O)NC2=O)cc1 [drawing 176] (X16-[Orn(4R-OH,5R-OH)]T[Hyp][hTyr(3S-OH,4S-OH)]T[Pro(3S-OH,4S-Me)]; lactam 1-C) | 3.75 |  | 5
9 | CCCCCCCCOc1cccc(CC(=O)N[C@H]2C[C@@H](O)[C@@H](O)NC(=O)[C@@H]3[C@@H](O)[C@@H](C)CN3C(=O)[C@H]([C@@H](C)O)NC(=O)[C@H]([C@H](O)[C@@H](O)c3ccc(O)cc3)NC(=O)[C@@H]3C[C@@H](O)CN3C(=O)[C@H]([C@@H](C)O)NC2=O)c1 [drawing 177] (X15-[Orn(4R-OH,5R-OH)]T[Hyp][hTyr(3S-OH,4S-OH)]T[Pro(3S-OH,4S-Me)]; lactam 1-C) | > 40 |  | 10
